Test results from patent publication US20230151025A1, “SUBSTITUTED THIAZOLOPYRIDINES, SALTS THEREOF AND THEIR USE AS HERBICIDALLY ACTIVE SUBSTANCES” (Bayer Aktiengesellschaft, priority 2020, published 2023).

Assays:
Type in all cases: in vivo
[1] = tested on: Abutilon theophrasti (ABUTH); assay: Herbicidal post-emergence action (D), 320 g/ha; details: ca. 3 weeks
Procedure, shortened: (§1)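 Visual % herbicidal effect vs untreated controls (100% = dead, 0% = like control), rated ca. 3 weeks after post-emergence spray. Plants treated at single-leaf stage, 2 to 3 weeks after sowing in sandy loam; aqueous WP/EC spray, 0.5% additive, 600 l water/ha.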

Viola tricolor (VIOTR) = assay: Herbicidal post-emergence action (D), 320 g/ha; details: ca. 3 weeks
Procedure, shortened: as §1

[2] = tested on: Digitaria sanguinalis (DIGSA); assay: Herbicidal post-emergence action (D), 320 g/ha; details: ca. 3 weeks
Excerpt: (§2) Seeds of mono- and dicotyledonous weed plants and crop plants were sown, in plastic or organic planting pots, in sandy loam, covered with soil and grown in a greenhouse under controlled growth conditions. 2 to 3 weeks after sowing, the test plants were sprayed in the single-leaf stage. The compounds according to the invention, formulated in form of wettable powders (WP) or as emulsifiable concentrates (EC), were sprayed onto the green plant parts as aqueous suspension or emulsion, with the addition of 0.5% of an additive, at an application rate of 600 l of water/ha (converted). The test plants were placed in the greenhouse for ca. 3 weeks under optimum growth conditions, and then the effect of the preparations was assessed visually in comparison with untreated controls (herbicidal effect in percent (%): 100% effect=plants have died off, 0% effect=as control plants).
(§3) Tables D1 to D13 below show the effects of selected compounds of the general formula (I) according to table 1 on various harmful plants and an application rate corresponding to 320 g/ha obtained by the experimental procedure mentioned above.

Stellaria media (STEME) [3] = assay: Herbicidal post-emergence action (D), 320 g/ha; details: ca. 3 weeks
Procedure, shortened: as §1

Lolium rigidum (LOLRI) = assay: Herbicidal post-emergence action (D), 320 g/ha; details: ca. 3 weeks
Procedure, shortened: as §1

Stellaria media (STEME) [4] = assay: Herbicidal pre-emergence action (C), 320 g/ha; details: visual grading after ca. 3 weeks vs untreated controls, 100% = plants have died off, 0% = as control plants
Procedure, shortened: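 Visual percent damage relative to untreated controls was scored about 3 weeks after treatment, where 100% means plants died off and 0% means like controls. Compounds, as WP or EC with 0.5% additive, were applied in 600 l water/ha to the soil covering sown seeds.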

Avena fatua = assay: Herbicidal post-emergence action (D), 320 g/ha; details: ca. 3 weeks
Excerpt: as §2, §3

Fc1ccccc1-c1nc2ncsc2cc1Cl [Example I-017]
herbicidal effect ABUTH [1]: 80% | herbicidal effect VIOTR (Viola tricolor (VIOTR)): 90%

CCc1cc2scnc2nc1-c1ccccc1F [Example I-023]
herbicidal effect DIGSA [2]: 80% | herbicidal effect ABUTH [1]: 80%

Fc1ccccc1-c1ccc2scnc2n1 [Example I-036, 5-(2-fluorophenyl)thiazolo[4,5-b]pyridine]
herbicidal effect STEME (Stellaria media (STEME) [3]): 90% | herbicidal effect LOLRI (Lolium rigidum (LOLRI)): 80% | STEME, herbicidal effect in percent (%) (Stellaria media (STEME) [4]): 90%

Cc1cc2scnc2nc1-c1ccccc1 [Example I-041]
herbicidal effect DIGSA [2]: 90% | herbicidal effect ABUTH [1]: 90% | herbicidal effect LOLRI (Lolium rigidum (LOLRI)): 80%

Cc1cc2scnc2nc1-c1ccccc1Cl [Example I-045]
herbicidal effect DIGSA [2]: 90% | herbicidal effect ABUTH [1]: 90% | herbicidal effect LOLRI (Lolium rigidum (LOLRI)): 80%

CCc1cc2scnc2nc1-c1ccccc1 [Example I-051]
herbicidal effect DIGSA [2]: 80% | herbicidal effect LOLRI (Lolium rigidum (LOLRI)): 80%

CCc1cc2scnc2nc1-c1ccccc1C [Example I-093]
herbicidal effect LOLRI (Lolium rigidum (LOLRI)): 80%

Cc1cc2scnc2nc1-c1sccc1Cl [Example I-137]
herbicidal effect DIGSA [2]: 90%

Cc1cc2scnc2nc1-c1ccsc1C [Example I-194]
herbicidal effect AVEFA (Avena fatua): 80%
